What was measured:
[1] = system: MV4-11 cells; experiment: MV4-11 6-Day Cell Growth CTG (CellTiter-Glo) Assay; assay type: cell-based; conditions: Homo sapiens, MV4-11, 144 h, MV4-11 cell growth CellTiter-Glo, 6 days
Procedure, shortened: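 MV4-11 AML cells (RPMI 1640, 10% FBS) seeded at 300 cells/well and exposed for 6 days at 37 °C to a 12-point, 1:3 compound series starting at 50 μM final. Viable cells read by CellTiter-Glo luminescence; percent inhibition versus DMSO-only wells fitted to dose-response curves for IC50.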

[2] = system: H3K4me3 in MV4-11 cells; experiment: MV4-11 H3K4me3 Cellular ELISA Assay; assay type: cell-based; conditions: Homo sapiens, MV4-11, 48 h
Procedure, shortened: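 MV4-11 cells were treated for 48 h with 12-point 1:3 compound dilutions (from 10 mM stock), then histones were acid-extracted with 0.5M HCl and neutralized. H3K4me3 and total H3 were measured by HRP chemiluminescent ELISA, and inhibition versus DMSO after H3 normalization was curve-fitted for IC50.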

[3] = target: wild type MLL1 four-member complex (MLL1-4C) (Homo sapiens, UniProt Q03164); experiment: MLL1 LC-MS Assay; assay type: biochemical; conditions: read-out: MLL1 LCMS
Procedure, shortened: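 Compound pre-incubated 20 min with MLL1-4C and SAM, then H3[1-21]-biotin (H3K4me0) substrate added; final 30 nM enzyme, 2.5 μM SAM, 10 μM peptide in Tris pH 8.0 with MgCl2, DTT, Tween 20, BSA. After 120 min at rt, TFA-quenched SAH quantified by LC-MS/MS with d4-SAH; IC50 from dose-response fit.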

[4] = target: wild type MLL1 five-member complex (MLL1-5C) (Homo sapiens, UniProt Q03164); experiment: MLL1 Flashplate Assay; assay type: biochemical; conditions: read-out: MLL1 flash plate
Procedure: MLL1 Flashplate Assay To assess the compound potency in MLL1 Flashplate assay, compounds were serially diluted 3-fold in DMSO to obtain a total of twelve concentrations. Then the test compounds at each concentration (250 nL of each) were transferred by Mosquito into Corning #3675 384-well plate. Solutions (15 μL) of 4.2 nM wild type MLL1 five-member complex (MLL1-5C) in the assay buffer (20 mM Tris-HCl, pH 8.0, 0.01% Tween 20, 1 mM DTT, 0.01% BSA) were added to the wells. A 10 μL solution of 2.5 μM of the peptide substrate H3K4me0 (histone H3[1-21]-Biotin) and 1.25 μM ^3H-SAM in the reaction buffer was then added to initiate each reaction. The final components in the reaction solution include 2.5 nM MLL1-5C, 0.5 μM ^3H-SAM, and 1 μM H3K4me0 with varying concentration of the compounds. A positive control consisted of 2.5 nM MLL1-5C, 0.5 μM ^3H-SAM, and 1 μM substrate in the absence of the test compound, and a negative control consisted of 0.5 μM ^3H-SAM, and 1 μM substrate only. Each reaction was incubated at rt for 90 min, then stopped by addition of 5 μL per of quench solution (0.5 mM SAM in assay buffer). 25 μL of each reaction solution was transferred to FlashPlate streptavidin 384-well microplate (PerkinElmer). After at least 1 h incubation at rt, the wells were washed three times with 0.1% Tween-20 in dH2O using the BioTek plate washer. The plates were then read in MicroBeta (PerkinElmer). The radioactive readouts were then normalized based on the values coming from the positive and negative controls to give percent enzyme activities. The data were then fit to a dose response equation using the program Helios to get the IC50 values of the test compounds.

Structure (SMILES) | IC50 [1] [nM] | IC50 [2] [nM] | IC50 [3] [nM] | IC50 [4] [nM]
Nc1ncnc2c1ncn2Cc1c(Br)ccc(Cl)c1N1CC[C@@](N)(C(=O)O)C1 [Example 142] | > 3000 | < 1900 | < 50 | < 60
Nc1ncnc2c1ncn2Cc1c(N2CC[C@](N)(C(=O)NC3CC3)C2)ccc(Br)c1C(F)(F)F [Example 146] | < 2000 | < 1900 | < 50 | < 60
NC(=O)[C@@]1(N)CCN(c2cc(Cl)cc(Br)c2Cn2cnc3c(N)ncnc32)C1 [Example 148] | < 2000 | < 1900 | < 50 | < 60
CCc1c(Cl)ccc(N2CC[C@](N)(C(=O)NCCS(=O)(=O)CC)C2)c1Cn1cnc2c(N)ncnc21 [Example 149] | < 2000 | < 1900 | < 50 | < 60
Nc1ncnc2c1ncn2Cc1c(Cl)c(Cl)cc(F)c1N1CCC(N)(C(=O)NC2CC2)C1 (stereo not drawn) [Example 152] | < 2000 | < 1900 | > 100 | < 60
CCc1ccc(Cl)c(N2CC[C@](N)(C(=O)NC3CC3)C2)c1Cn1cnc2c(N)ncnc21 [Example 154] | < 2000 | < 1900 | < 50 | > 100
CCOC(=O)[C@@]1(N)CCN(c2cc(Cl)cc(Br)c2Cn2cnc3c(N)ncnc32)C1 [Example 170] | < 2000 | < 1900 | 50 to 100 | < 60

Further lines, results first:

IC50 [1] [nM] | IC50 [2] [nM] | IC50 [3] [nM] | IC50 [4] [nM] | Structure (SMILES)
< 2000 | < 1900 | < 50 | < 60 | Nc1ncnc2c1ncn2Cc1c(Br)c(Cl)cc(Cl)c1N1CC[C@](N)(C(=O)NC2CC2)C1 [Example 143]
< 2000 | < 1900 | < 50 | < 60 | Nc1ncnc2c1ncn2Cc1c(N2CC[C@](N)(C(=O)NC3CC3)C2)ccc(Cl)c1Cl [Example 144]
< 2000 | < 1900 | < 50 | < 60 | CCc1c(Cl)ccc(N2CC[C@](N)(C(=O)NCCS(=O)(=O)c3ccccc3)C2)c1Cn1cnc2c(N)ncnc21 [Example 145]
< 2000 | < 1900 | < 50 | < 60 | Nc1ncnc2c1ncn2Cc1c(N2CC[C@](N)(C(=O)NC3CC3)C2)ccc(OC(F)(F)F)c1Br [Example 147]
< 2000 | 1900 to 3000 | < 50 | < 60 | Nc1ncnc2c1ncn2Cc1c(-c2cccc3c2CCCC3)cc(Cl)cc1N1CC[C@](N)(C(=O)NC2CC2)C1 [Example 150]
< 2000 | < 1900 | > 100 | < 60 | CCc1cc(Cl)cc(N2CC[C@](N)(C(=O)N3CCS(=O)(=O)CC3)C2)c1Cn1cnc2c(N)ncnc21 [Example 151]
< 2000 | < 1900 | < 50 | 60 to 100 | CCc1c(Cl)ccc(N2CC[C@](N)(C(=O)NC3CCS(=O)(=O)CC3)C2)c1Cn1cnc2c(N)ncnc21 [Example 153]
< 2000 | < 1900 | > 100 | > 100 | CCc1c(Cl)ccc(N2CC[C@](N)(C(=O)N3CCS(=O)(=O)CC3)C2)c1Cn1cnc2c(N)ncnc21 [Example 155]
